Patent US9758559B2, “Short peptides derived from VDAC1, compositions and methods of use thereof” (B.G. NEGEV TECHNOLOGIES AND APPLICATIONS LTD., AT …, priority 2013, dated 2017)
Where a SMILES comes first, the peptide text is derived from it. [ ]: non-standard residue; d: D form.

Experiments:
T-Rex-293 cells = assay type: cell-based
From the text: (§1) Data represent mean values, n=3.
(§2) It was previously disclosed that peptide Antp-LP4 (SEQ ID NO:23) derived from another part of VDAC1, selectively induce cell death of cancerous cells co-expressing the cell surface markers CD19 and CD5 (U.S. Pat. No. 8,648,045) as well as other cancer cells as HeLa.

[1] = tested on: human prostate cancer cell lines (PC3); assay type: cell-based
From the text: as §1, §2

glioblastoma U-87 cells [2] = assay: Mitochondrial membrane potential analysis (TMRM, FACS); assay type: cell-based, human; conditions: 3 h incubation
Procedure: U-87 cells were incubated with the indicated concentrations of D-Δ1-14N-Ter-Antp (SEQ ID NO:9), washed with PBS, incubated with or without the potentiometric fluorescent dye TMRM (200 nM, 20 min), washed with PBS and subjected to FACS analysis. FCCP, allowing for Δψ dissipation, served as a control.
(§3) VDAC1 is a key component in regulating the energy production of the cell. It is known that cancer cells are characterized by elevated energy demand. The effects of D-Δ(1-14) N-Ter-Antp on the mitochondrial inner membrane polarization and cellular ATP level were examined using glioblastoma U-87 cells. U-87 cells were incubated for 3 h with the various concentrations of D-Δ1-14N-Ter-Antp or with FCCP (10 μM, control for depolarization) for 1 h.

MEC-1 cells = assay type: cell-based; conditions: 90 min incubation, serum-free medium, PI staining, FACS, read-out: IC50, induction of cell death, MEC-1
Procedure: MEC-1, MO1043 and T-Rex-293 cells were grown in DMEM supplemented with 10% FCS, 2 mM L-glutamine, 1000 U/ml penicillin and 1 mg/ml streptomycin, U-87, C6 and PC3 were maintained in RPMI 1640 supplemented with 10-20% FCS, 2 mM L-glutamine, 1000 U/ml penicillin and 1 mg/ml streptomycin. All cells were maintained in a humidified atmosphere with 5% CO2 at 37° C.
PBMCs (4×10^5 or 8×10^5 cells/sample) were incubated in 200 μl serum-free medium with the examined peptide for 90 min at room temperature and centrifuged (500×g, 5 min) Cell death was analyzed by PI staining and flow cytometer (Beckton-Dickinson) and BD Cell Quest Pro software. Apoptotic cell death was also analyzed by PI and annexin V-FITC staining (Zaid H et al. 2005. 12:751-760), and by acridine orange and ethidium bromide staining and confocal microscopy (Olympus 1×81).
To optimize the VDAC1 N-terminal derived peptides with respect to stability, length and specific targeting to cancer cells, several versions of these peptides were designed and tested for their efficacy in inducing the death of CLL-derived lymphocytes and MEC-1 cells (Table 3). Cells were incubated for 90 min with increasing concentrations of the indicated peptide and death was analyzed by PI stating and FACS as described hereinabove. As is clearly shown in FIG. 1 (and Table 3), deleting 6 residues from the C-terminus of the peptide, including the GXXXG motif, yielded a non-active peptide (peptide Δ(21-26) N-Ter-Antp, SEQ ID NO:22).

glioblastoma U-87 cells [3] = assay: ATP quantification (CellTiter-Glo); assay type: cell-based, human; conditions: 3 h incubation
Procedure: U-87 cells were seeded in 96-well plates (2×10^6/ml), incubated for 3 h with the indicated concentrations of D-Δ1-14N-Ter-Antp (SEQ ID NO:9), washed twice with PBS and incubated with the CellTiter-Glo reagent (Promega). Luminescence was recorded using an Infinite M1000 microplate reader (Tecan Trading, Mannedorf, Switzerland).
as §3

[4] = biological target: T1, Mitochondria-Bound Hexokinase 1 (HK-1) (Rattus norvegicus, UniProt P05708); assay: Detachment of mitochondria-bound HK-1-GFP in HeLa cells (confocal microscopy); assay type: cell-based; conditions: HeLa cells expressing HK-1-GFP, 6 h
T1 construct: expressed in transfected cells; host or cells: HeLa cells
T1 sequence (P05708 1-918): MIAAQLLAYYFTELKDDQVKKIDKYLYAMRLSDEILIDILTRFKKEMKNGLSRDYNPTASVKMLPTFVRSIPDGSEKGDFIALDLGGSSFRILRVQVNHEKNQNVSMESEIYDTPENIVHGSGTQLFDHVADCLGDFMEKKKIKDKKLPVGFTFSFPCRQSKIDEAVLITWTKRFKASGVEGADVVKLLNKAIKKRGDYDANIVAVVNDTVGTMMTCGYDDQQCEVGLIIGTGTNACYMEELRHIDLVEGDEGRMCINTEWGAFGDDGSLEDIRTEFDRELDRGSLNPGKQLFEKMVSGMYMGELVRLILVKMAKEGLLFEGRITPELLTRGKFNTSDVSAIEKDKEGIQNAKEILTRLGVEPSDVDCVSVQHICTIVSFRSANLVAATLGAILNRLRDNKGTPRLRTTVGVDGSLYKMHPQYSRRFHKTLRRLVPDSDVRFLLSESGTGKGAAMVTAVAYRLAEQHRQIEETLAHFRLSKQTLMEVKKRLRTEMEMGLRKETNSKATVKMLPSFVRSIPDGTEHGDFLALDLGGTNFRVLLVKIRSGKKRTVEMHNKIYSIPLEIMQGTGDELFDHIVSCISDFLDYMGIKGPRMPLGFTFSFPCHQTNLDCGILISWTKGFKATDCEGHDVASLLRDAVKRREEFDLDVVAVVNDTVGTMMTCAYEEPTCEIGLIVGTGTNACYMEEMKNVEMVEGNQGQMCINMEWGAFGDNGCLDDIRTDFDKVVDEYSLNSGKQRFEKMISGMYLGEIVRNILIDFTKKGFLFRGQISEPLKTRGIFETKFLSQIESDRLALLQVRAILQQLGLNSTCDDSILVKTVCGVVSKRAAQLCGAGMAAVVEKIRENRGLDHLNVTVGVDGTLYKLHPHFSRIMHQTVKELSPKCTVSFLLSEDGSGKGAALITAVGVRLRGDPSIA
Procedure: To visualize HK detachment induced by the D-Δ(1-14) N-terminal-Antp peptide, HeLa cells (3×10^5) were grown on Poly-D-Lysine (PDL)-coated coverslips in a 60 mm dish and transfected with pEGFP-HK-I or with plasmid pEGFP. HK-I-GFP fusion protein, in which GFP was connected to the HK-I C-terminal (pEGFP-HK-I), was constructed using an EcoR1 restriction site to introduce GFP into the 3′ (at the stop codon) of HK1 in plasmid pcDNA3.1 by site-directed mutagenesis with overlapping PCR amplification, using the following primers: 5′-[…]-3; (forward, SEQ ID NO:24) and 5′-[…]-3; (reverse, SEQ ID NO:25).
After 48 h, cells were incubated for 6 h with a serum-free medium containing 0.4% DMSO or with the indicated concentration of D-Δ(1-14) N-Ter-Antp peptide. Cells were washed with PBS, fixed for 20 min with 4% paraformaldehyde prepared in PBS, rinsed for 30 min in PBS and cell imaging was carried out by confocal microscopy (Olympus 1×81).

CC[C@@H](C)[C@@H](NC(=O)[C@@H](CCCCN)NC(=O)[C@H](NC(=O)[C@@H](CCC(N)=O)NC(=O)[C@@H](CCCNC(=N)N)NC(=O)[C@@H](CC(C)C)NC(=O)CNC(=O)[C@@H](Cc1ccccc1)NC(=O)CNC(=O)[C@@H](Cc1ccc(O)cc1)NC(=O)CNC(=O)[C@@H](CCCCN)NC(=O)[C@H](NC(=O)[C@@H](Cc1ccccc1)NC(=O)[C@H](NC(=O)[C@@H](CC(=O)O)NC(=O)[C@H](N)CCCNC(=N)N)C(C)C)[C@H](C)O)[C@H](C)CC)C(=O)N[C@H](Cc1c[nH]c2ccccc12)C(=O)N[C@H](Cc1ccccc1)C(=O)N[C@H](CCC(N)=O)C(=O)N[C@H](CC(N)=O)C(=O)N[C@H](CCCNC(=N)N)C(=O)N[C@H](CCCNC(=N)N)C(=O)N[C@H](CCSC)C(=O)N[C@H](CCCCN)C(=O)N[C@H](Cc1c[nH]c2ccccc12)C(=O)N[C@H](CCCCN)C(=O)N[C@H](CCCCN)C(=O)O [D-Δ(1-14) N-Ter-Antp, ALL D-RDVFTKGYGFGL RQIKIWFQNRRMKWKK] (H-[dR][dD][dV][dF][dT][dK]G[dY]G[dF]G[dL][dR][dQ][dI][dK][dI][dW][dF][dQ][dN][dR][dR][dM][dK][dW][dK][dK]-OH)
induction of cell death, in words (T-Rex-293 cells; T-Rex-293 control cells): some induction of cell death | IC50 (T-Rex-293 cells; non-malignant cells TRex-293, read-out: IC50, cell death, non-malignant cells TRex-293): > 14.3 µM | induction of cell death, in words ([1]; PC3 cells): dramatic cell death | IC50 ([1]; prostate cell line PC3, read-out: IC50, cancer cell death, PC3): 1.51 µM | mitochondrial inner membrane polarization (glioblastoma U-87 cells [2]): induced mitochondrial inner membrane depolarization | IC50 (MEC-1 cells): 2.1 ± 0.3 µM | cellular ATP level (glioblastoma U-87 cells [3]): almost complete reduction of cellular ATP level | HK-1-GFP detachment from the mitochondria [4]: diffusion of HK-1-GFP out into the cytosol is observed
